Results on one compound are retold here after ChEMBL document CHEMBL5523744, “Recent Advances in Targeted Cancer Therapy: Are PDCs the Next Generation of ADCs?” (J Med Chem, 2024).

The subject of this experiment is DNA. The experiment is described as follows: Induction of DNA (unknown origin) minor groove alkylation. The format is nucleic-acid assay, Homo sapiens.

As for `CC(C)(C)OC(=O)Nc1ccc(C(=O)Nc2ccc3cc(C(=O)N4C[C@@H](CCl)c5c4cc(O)c4ccccc54)[nH]c3c2)cc1`, the midpoint of inhibition, the IC50, lay at 0.04 nM.
